From patent publication US12209080B2, “Polymorphic forms of kinase inhibitor compound, pharmaceutical composition containing same, preparation method therefor and use thereof” (EQUINOX SCIENCES, LLC, priority 2016, dated 2025)

Tests used:
Format in all cases: physicochemical
[1] = Stability of the crystalline forms (HPLC, XRD, DSC); settings: for HPLC Maximum single impurity %: retention time (min) in brackets
Method: Experimental conditions: the samples were sealed and placed at 80° C. for 24 hours, and then placed in an open dish at 25° C./60% RH (relative humidity) and 40° C./75% RH for 7 days. Detection method: HPLC (only for the starting samples and samples placed at 80° C. for 24 hours), XRD, DSC.
In addition, the long-term stabilities of the crystalline form 1 for 12 months, 24 months, 36 months, and 48 months at 25° C./60% RH were also investigated.

[2] = Stability of crystalline form 1 in aqueous methanol (XRPD detection)
Description: The stability of the crystalline form 1 in aqueous methanol solution at different temperature and for different time is as follows.

[3] = Moisture-induced crystallization experiment (XRD); settings: room temperature, 58-97% RH, up to 10 days
Method: About 10 mg of the crystalline form 1 was taken and placed in the corresponding environment, and the solid was detection by XRD at different time.

Cc1[nH]c(/C=C2\C(=O)Nc3ccc(F)cc32)c(C)c1C(=O)N[C@H]1CCN(C(=O)N(C)C)C1 [crystalline form 1, 5-[5-fluoro-2-oxo-1,2-dihydro-indole-(3Z)-ylidenemethyl]-2,4-dimethyl-1H-pyrrole-3-carboxylic acid ((S)-1-dimethylcarbamoyl-pyrrolidin-3-yl)-amide]
HPLC Purity % ([1]; 0 day (starting sample)): 99.67%
HPLC Maximum single impurity % ([1]; 0 day (starting sample)): 0.22 (4.73) %
long-term stability of the crystalline form ([1]; 12, 24, 36 and 48 months at 25° C./60% RH): substantially unchanged
crystalline form and melting point by XRD and DSC ([1]; sealed 80° C. 24 hours, open dish 25° C./60% RH and 40° C./75% RH for 7 days): substantially unchanged
HPLC Purity % ([1]; sealed, 80° C./24 h): 98.87%
HPLC Maximum single impurity % ([1]; sealed, 80° C./24 h): 1.03 (4.73) %
XRPD detection ([2]; 2.0 g in 50 mL methanol, moisture (KF) 0.1%, 20-30° C., 2 hrs): form 1
XRPD detection ([2]; 2.0 g in 50 mL methanol, moisture (KF) 0.1%, 20-30° C., 4 hrs): form 1
XRPD detection ([2]; 2.0 g in 50 mL methanol, moisture (KF) 0.1%, 20-30° C., 8 hrs): form 1
XRPD detection ([2]; 2.0 g in 50 mL methanol, moisture (KF) 0.1%, 20-30° C., 21 hrs): form 1
XRPD detection ([2]; 2.0 g in 50 mL methanol, moisture (KF) 5.2%, 20-30° C., 2 hrs): form 1
XRPD detection ([2]; 2.0 g in 50 mL methanol, moisture (KF) 5.2%, 20-30° C., 4 hrs): form 1
XRPD detection ([2]; 2.0 g in 50 mL methanol, moisture (KF) 5.2%, 20-30° C., 8 hrs): form 1
XRPD detection ([2]; 2.0 g in 50 mL methanol, moisture (KF) 5.2%, 20-30° C., 21 hrs): form 1
XRPD detection ([2]; 2.0 g in 50 mL methanol, moisture (KF) 10%, 20-30° C., 2 hrs): form 1
XRPD detection ([2]; 2.0 g in 50 mL methanol, moisture (KF) 10%, 20-30° C., 4 hrs): form 1
XRPD detection ([2]; 2.0 g in 50 mL methanol, moisture (KF) 10%, 20-30° C., 8 hrs): form 1
XRPD detection ([2]; 2.0 g in 50 mL methanol, moisture (KF) 10%, 20-30° C., 21 hrs): form 1
XRPD detection ([2]; 5.0 g in 50 mL methanol, moisture (KF) 0.1%, reflux, 2 hrs): form 1
XRPD detection ([2]; 5.0 g in 50 mL methanol, moisture (KF) 0.1%, reflux, 4 hrs): form 1
XRPD detection ([2]; 5.0 g in 50 mL methanol, moisture (KF) 0.1%, reflux, 8 hrs): form 2
XRPD detection ([2]; 5.0 g in 50 mL methanol, moisture (KF) 0.1%, reflux, 21 hrs): form 2
XRPD detection ([2]; 5.0 g in 50 mL methanol, moisture (KF) 5.2%, reflux, 2 hrs): form 1
XRPD detection ([2]; 5.0 g in 50 mL methanol, moisture (KF) 5.2%, reflux, 4 hrs): form 1 + form 2
XRPD detection ([2]; 5.0 g in 50 mL methanol, moisture (KF) 5.2%, reflux, 8 hrs): form 2
XRPD detection ([2]; 5.0 g in 50 mL methanol, moisture (KF) 5.2%, reflux, 21 hrs): form 2
XRPD detection ([2]; 5.0 g in 50 mL methanol, moisture (KF) 10%, reflux, 2 hrs): form 1
XRPD detection ([2]; 5.0 g in 50 mL methanol, moisture (KF) 10%, reflux, 4 hrs): form 2
XRPD detection ([2]; 5.0 g in 50 mL methanol, moisture (KF) 10%, reflux, 8 hrs): form 2
XRPD detection ([2]; 5.0 g in 50 mL methanol, moisture (KF) 10%, reflux, 21 hrs): form 2
stability under humidity conditions (overall) [3]: stable
